Reference: patent US20150038707A1, “PROCESS FOR MAKING CGRP RECEPTOR ANTAGONISTS” (Merck Sharp & Dohme Corp., priority 2012, published 2015)
Where “and” joins values, the source holds several entries; their conditions need not be identical. Equal entries are not always repeated.

Columns and labels:
mosquitoes (Ae. aegypti) [1] = assay: Compound residual life: spatial repellency (Example 11); format: in vivo; settings: 12 week test period
Experimental: The four compounds of formula I described in Example 2 were tested for spatial repellency (directed movement away from the chemical source without the insect making physical contact with the treated surface) at low doses on female Aedes aegypti (Thailand strain) mosquitoes. The spatial repellency response was determined by use of the spatial repellency assay disclosed by Grieco et al. in “A New Classification System for the Actions of IRS Chemicals Traditionally Used for Malaria Control” in Plos One, Issue 8 (2007) (available at www.plosone.org) which is incorporated herein by reference for all relevant and consistent purposes. The assay used was a cylindrical assembly that included a treatment chamber at one end and a control chamber at the other end. The treatment chamber included a netting strip (nylon organdy) that was treated with the insecticide of interest at the relevant dose. The treatment chamber and control chamber were connected by a clear cylinder and were separated from the clear cylinder by butterfly valves. Twenty (20) mosquitoes were introduced into the clear central chamber and the butterfly valves were opened after 30 seconds. After 10 minutes, the valves were closed and the number of mosquitoes in each chamber was counted. […]

mosquitoes (Ae. aegypti) [2] = assay: Compound residual life: contact irritancy (Example 10); format: in vivo; settings: for Number escaping (mean +/- SE), treated: 10 mosquitoes per run, 6 runs per net sample
Experimental: Four compounds of formula (I) were tested for contact irritancy (i.e., movement away from the source after physical contact) at low doses on female Aedes aegypti (Thailand strain) mosquitoes. The contact irritant response was determined by use of the contact irritant assay disclosed by Grieco et al. in “A New Classification System for the Actions of IRS Chemicals Traditionally Used for Malaria Control,” Plos One, Issue 8 (2007) (available at www.plosone.org). The assay used was a cylindrical assembly that included a metal treatment end to which 10 mosquitoes were introduced and a clear receiving chamber. The treatment end included a netting strip (nylon organdy) that was treated with the insecticide of interest at the relevant dose. A butterfly valve separated the treatment end from the remainder of the assembly.
Contact irritancy tests (blind testing) were performed for several samples of compounds 1405 and 1406 at 0 weeks, 2 weeks, 4 weeks, 8 weeks and 12 weeks to determine the residual contact irritancy of the compounds on mosquitoes (Ae. aegypti). Between testing, the nets were hung in the lab and held at a temperature of 27-29° C. and 56-67% relative humidity. Each run was performed 6 times for each sample with 10 mosquitoes used in each run (60 mosquitoes total).

KDR Resisant An. Gambiae = assay: Bottle toxicity assay (Example 8), knockdown resistant mosquitoes; format: in vivo, Anopheles gambiae
Experimental: Several compounds were tested to determine their toxic effect on knockdown resistant Anopheles gambiae mosquitoes and susceptible mosquitoes. Acetone and different amounts of pesticides were added to 250 ml bottles. In one bottle, only acetone was added as a control. The bottles were rotated in all directions while uncapped until all acetone was evaporated and the insecticide was coated onto the inside surfaces of the bottle. A number of knockdown resistant Anopheles gambiae mosquitoes were added to the bottle. The number of dead mosquitoes was recorded at 1 hour and 24 hours.

For `CC1(C)C(C=C(Cl)Cl)C1C(=O)OCc1ccc(F)c(C(F)(F)F)c1F` (centres unmarked) [Compound 1406], the “residual spatial repellent activity (in words)” value (mosquitoes (Ae. aegypti) [1]) was “appeared to be the more residual of the two compounds tested”, the “residual contact irritant activity (in words)” value (mosquitoes (Ae. aegypti) [2]; 12 week test period, nets held at 27-29° C.) was “the most residual with the highest level of activity out to 12 weeks” and the “Percent escaping (mean ± SE)” value (mosquitoes (Ae. aegypti) [2]; Time 0 week) was 80 ± 2% and 87 ± 4% and 87 ± 7% and 87 ± 10%. For the same compound, the “Number escaping (mean +/- SE), treated” value (mosquitoes (Ae. aegypti) [2]; Time 0 week) was 3.8 ± 0.5 and 3.2 ± 0.5 and 3.2 ± 1.2 and 4.0 ± 1.0, the “Percent escaping (mean ± SE)” value (mosquitoes (Ae. aegypti) [2]; Time 2 week) was 57 ± 4% and 63 ± 5% and 58 ± 7% and 62 ± 8% and the “Number escaping (mean +/- SE), treated” value (mosquitoes (Ae. aegypti) [2]; Time 2 week) was 2.5 ± 0.8 and 2.7 ± 0.3 and 2.2 ± 0.2. For the same compound, the “Percent escaping (mean ± SE)” value (mosquitoes (Ae. aegypti) [2]; Time 4 week) was 50 ± 10% and 47 ± 4% and 45 ± 4% and 35 ± 8%, the “Number escaping (mean +/- SE), treated” value (mosquitoes (Ae. aegypti) [2]; Time 4 week) was 2.0 ± 0.4 and 2.3 ± 0.5 and 2.5 ± 0.4 and 2.5 ± 0.8 and the “Percent escaping (mean ± SE)” value (mosquitoes (Ae. aegypti) [2]; Time 8 week) was 40 ± 10% and 37 ± 2% and 27 ± 7% and 28 ± 9%. For the same compound, the “Percent escaping (mean ± SE)” value (mosquitoes (Ae. aegypti) [2]; Time 12 week) was 37 ± 4% and 31 ± 4% and 22 ± 6% and 19 ± 5%, the “KDR Resisant An. Gambiae (% dead (SE))” value (KDR Resisant An. Gambiae; Dose 0.025 μg/bottle, Strain Tested F122, Time 1 hour) was 100% and the “KDR Resisant An. Gambiae (% dead (SE))” value (KDR Resisant An. Gambiae; Dose 0.025 μg/bottle, Strain Tested F122, Time 24 hours) was 100%. For the same compound, the “KDR Resisant An. Gambiae (% dead (SE))” value (KDR Resisant An. Gambiae; Dose 0.025 μg/bottle, Strain Tested F123, Time 1 hour) was 100%, the “KDR Resisant An. Gambiae (% dead (SE))” value (KDR Resisant An. Gambiae; Dose 0.025 μg/bottle, Strain Tested F123, Time 24 hours) was 100% and the “KDR Resisant An. Gambiae (% dead (SE))” value (KDR Resisant An. Gambiae; Dose 0.25 μg/bottle, Strain Tested F122, Time 1 hour) was 100%. For the same compound, the “KDR Resisant An. Gambiae (% dead (SE))” value (KDR Resisant An. Gambiae; Dose 0.25 μg/bottle, Strain Tested F122, Time 24 hours) was 100%, the “KDR Resisant An. Gambiae (% dead (SE))” value (KDR Resisant An. Gambiae; Dose 0.25 μg/bottle, Strain Tested F123, Time 1 hour) was 100% and the “KDR Resisant An. Gambiae (% dead (SE))” value (KDR Resisant An. Gambiae; Dose 0.25 μg/bottle, Strain Tested F123, Time 24 hours) was 100%. The “KDR Resisant An. Gambiae (% dead (SE))” value (KDR Resisant An. Gambiae; Dose 2.5 μg/bottle, Strain Tested F122, Time 1 hour) was 100%, the “KDR Resisant An. Gambiae (% dead (SE))” value (KDR Resisant An. Gambiae; Dose 2.5 μg/bottle, Strain Tested F122, Time 24 hours) was 100% and the “KDR Resisant An. Gambiae (% dead (SE))” value (KDR Resisant An. Gambiae; Dose 2.5 μg/bottle, Strain Tested F123, Time 1 hour) was 100%. The “KDR Resisant An. Gambiae (% dead (SE))” value (KDR Resisant An. Gambiae; Dose 2.5 μg/bottle, Strain Tested F123, Time 24 hours) was 100% and the “effectiveness against knockdown resistant strains” value (KDR Resisant An. Gambiae; summary of Table 3) was “effective against knockdown resistant strains”.
